This is an account of results in patent US9023836B2, “Use of substituted heterocyclic compounds to control sea lice on fish” (Novartis Tiergesundheit AG, priority 2010, dated 2015).

For test [1], the system named is Lepeophtheirus salmonis copepodids. Nature of the test: Activity in vitro against Lepeophtheirus salmonis at copepodid stage. As to conditions: 1 hour contact in sea water, then 48 h in untreated sea water, no movement over 80 seconds, read-out: efficacy (EC80). The method, then: Activity in Vitro Against Lepeophtheirus Salmonis at Copepodid Stage Sea lice copepodids were used to seed a 96-well plate containing the test substances to be evaluated for antiparasitic activity. Each compound was tested by serial dilution in order to determine its minimal effective dose (MED). Copepodids were left in contact with the test compound diluted in sea water for 1 hour. They were then incubated in untreated sea water for 48 h. Efficacy against sea lice was then confirmed if no copepodid moved over a period of 80 seconds.

Test [2] has as its system Lepeophtheirus salmonis on Atlantic salmon. Nature of the test: In vivo activity against Lepeophtheirus salmonis on Atlantic salmon using injectable application. The protocol:
In Vivo Activity of Compound 8 Against Lepeophtheirus Salmonis on Atlantic Salmon using Injectable Application
Twenty Atlantic salmon (mean weights at about 100 g) were anaesthetized with 2-phenoxy ethanol, individually weighed and injected with 0.2 ml of compound 8 formulated in PEG300 at 2.5%, corresponding to a 50 mg/kg dose. Each treatment was administered by single IP injection and fish were then transferred to a flow through tank, the temperature of which was maintained between 6 and 14° C. Louse infection was by exposure of experimental fish to louse copepodids freshly hatched from Lepeophtheirus salmonis egg strings. The number of copepodids used was selected to provide a settlement rate of at least 10 lice per fish. Sea louse numbers were assessed when they had developed to chalimus stage III/IV or later on if needed.
Ten fish per group were anaesthetized with 2 phenoxy-ethanol and examined for louse settlement under a dissecting microscope. Differences in sea louse counts between each test group and the relevant control group (non treated) infested at the same time as the test group were assessed using Mann-Whitney Tests. Efficacy was calculated using the formula: % Efficacy=100−(100×mean of treatment group/mean of control).

Test [3] has the same test system. Nature of the test: In vivo activity against Lepeophtheirus salmonis on Atlantic salmon using in-feed application. The settings on record: medicated pellets 9.8 mg/kg/day, 7 consecutive days. The protocol: In Vivo Activity of Compound 8 Against Lepeophtheirus Salmonis on Atlantic Salmon using In-Feed Application
Compound 8 was administered orally via medicated fish pellets at an average dose of 9.8 mg/kg/day during 7 consecutive days to 50 Atlantic salmon infected with lice (Lepeophtheirus salmonis). The medicated pellets were prepared by dry top coating of the compound 8, formulated as feed additive as described above, and over-oiling to seal (1% fish oil). Fish had been previously infected by exposure to louse. The number of copepodids used was selected to provide an settlement rate of at least 10 lice per fish. Treatment was done when lice had developed to pre-adult II and adult stages. Sea louse numbers were assessed 34 days post treatment. A second challenge using louse copepodids took place at 41 days post treatment. Sea louse numbers were assessed when they had developed to adults.
All fish were anaesthetized with 2 phenoxy-ethanol and examined for louse settlement under a dissecting microscope. Differences in sea louse counts between each test group and the relevant control group (non treated) infested at the same time as the test group were assessed using Mann-Whitney Tests. Efficacy was calculated using the formula: % Efficacy=100−(100×mean of treatment group/mean of control).

The test system is the same in test [4]. The test is described as follows: In vivo activity against Lepeophtheirus salmonis on Atlantic salmon using bath treatment application. The settings on record: bath 2 ppm in salt water, 60 minutes. The method, then:
In Vivo Activity of Compound 8 Against Lepeophtheirus Salmonis on Atlantic Salmon using Bath Treatment Application Bath containing compound 8 at 2 ppm in salt water was prepared by dilution of a solution of compound 8 in DMSO. Fish (Atlantic salmons) had been previously infected with 2 cohorts of lice to ensure the presence of chalimus and motile lice at the time of treatment. This test was performed on thirty fish per group and was compared to 30 control fish that were bathed in sea water containing DMSO only (at an inclusion rate equal to that used in the test group using the most DMSO as solvent), for 60 minutes. The fish were then transferred to holding tanks and sampled for lice numbers at 3 and 10 days post treatment. Ten fish per group were anaesthetized with 2 phenoxy-ethanol and examined for louse settlement under a dissecting microscope. Differences in sea louse counts between each test group and the relevant control group (non treated) infested at the same time as the test group were assessed using Mann-Whitney Tests. Efficacy was calculated using the formula: % Efficacy=100−(100×mean of treatment group/mean of control).

Test [5] concerns Lepeophtheirus salmonis adult lice. Nature of the test: In vitro activity against Lepeophtheirus salmonis at adult stage. The settings on record: at 1 ppm; 60 minutes exposure, survival at 24 hours post exposure, 12° C. The protocol:
In Vitro Activity of Compound 8 Against Lepeophtheirus Salmonis at Adult Stage
Ten mixed sex adult lice (non gravid, Lepeophtheirus salmonis) were removed from fish and exposed to a test compound at several dilution in filtered sea water and placed in an incubator at 12° C. in dark conditions. After 60 minutes exposure, lice were rinsed in clean sea water and transferred to petri dishes containing 100 mL of sea water. They were then returned to the incubator. Lice were examined for survival at 24 hours post exposure (moribund lice considered as dead)

The mark [6] stands for this setting: 50 mg/kg IP, 14 days post treatment, Chalimus III.
[7] abbreviates: 50 mg/kg IP, 41 days post treatment, Chalimus III.
[8] abbreviates: 50 mg/kg IP, 83 days post treatment, Chal III/IV.
The mark [9] stands for this setting: 50 mg/kg IP, 127 days post treatment, Chal III/IV.
Where [10] appears, read: 50 mg/kg IP, 169 days post treatment, Chal III/IV.
Setting [11] is: 50 mg/kg IP, 217 days post treatment, Adults.
[12] abbreviates: 50 mg/kg IP, 217 days post treatment, Chal III/IV.
[13] abbreviates: 50 mg/kg IP, 217 days post treatment, PAI & PAII.
[14] abbreviates: 50 mg/kg IP, 252 days post treatment, Chal IV/PAI.

Each structure is given as a SMILES string. Values after ≈ are worked out from the molar mass of the structure shown.

As for `Cc1cc(C2=NOC(c3cc(Cl)cc(Cl)c3)(C(F)(F)F)C2)ccc1-n1cncn1` (centres unmarked) [Example 1], in test [1], the EC80 was determined as 0.05 µg/mL (≈ 0.113 µM).

Turning to `Cc1cc(C2=NOC(c3cc(Cl)cc(Cl)c3)(C(F)(F)F)C2)ccc1C(=O)NCc1ccccn1` (centres unmarked) [Example 2], the EC80 in test [1] worked out at 0.05 µg/mL (≈ 0.0984 µM).

For the compound `Cc1cc(C2=NOC(c3cc(Cl)cc(Cl)c3)(C(F)(F)F)C2)ccc1C(=O)NCC(F)(F)F` (centres unmarked) [Example 3], in test [1], the EC80 came out at 0.05 µg/mL (≈ 0.1 µM).

As for `N#Cc1cc(C2=NOC(c3cc(Cl)cc(Cl)c3)(C(F)(F)F)C2)ccc1-n1cncn1` (centres unmarked) [Example 6], in test [1], the concentration for an effect of 80% (EC80) was determined as 0.05 µg/mL (≈ 0.111 µM).

Take `O=C(NCc1ccccn1)c1ccc(C2=NOC(c3cc(Cl)cc(Cl)c3)(C(F)(F)F)C2)c2ccccc12` (centres unmarked) [Example 7]: the EC80 in test [1] amounted to 0.05 µg/mL (≈ 0.0919 µM).

Consider `O=C(NCC(F)(F)F)c1ccc(C2=NOC(c3cc(Cl)cc(Cl)c3)(C(F)(F)F)C2)c2ccccc12` (centres unmarked) [Example 8], for which, in test [1], the EC80 worked out at 0.05 µg/mL (≈ 0.0934 µM). The Efficacy in test [2] (setting [6]) amounted to 99.5%; in test [2] (setting [7]), 100%; in test [2] (setting [8]) it was 100%; in test [2] (setting [9]) it was 100%; in test [2] (setting [10]), 100%; in test [2] (setting [11]), 97.3%. For the same compound, the Efficacy in test [2] (setting [12]) is given as 74.3%; in test [2] (setting [13]), 94.6%; in test [2] (50 mg/kg IP, 252 days post treatment, Adults), 84.9%; in test [2] (setting [14]), 29.8%; in test [2] (single IP injection 50 mg/kg in PEG300, for up to 7 months post treatment), “more than 90%”; in test [5], “more than 90%”. Also, the “Mean lice count of treated fish ± s.d.” value in test [2] (setting [6]) stood at 0.1 ± 0.3; in test [2] (setting [7]) it was 0.0 ± 0.0; in test [2] (setting [8]), 0.0 ± 0.0; in test [2] (setting [9]), 0.0 ± 0.0; in test [2] (setting [10]) it was 0.0 ± 0.0; in test [2] (setting [11]) it was 0.5 ± 1.0. Further, the entries for the “Mean lice count of treated fish ± s.d.” value in test [2] (setting [12]), in test [2] (setting [13]) and in test [2] (setting [14]) were 22.9 ± 27.7, 4.5 ± 5.8 and 21.4 ± 15.5, respectively. For the same compound, the “efficacy as a curative treatment (first challenge)” value in test [3] (lice assessed 34 days post treatment) was 100%. Further, the “efficacy on the challenge performed 41 days post treatment” value in test [3] (second challenge with copepodids, assessed at adult stage) was found to be 100%. Moreover, the “effective against adult sea lice” value in test [4] (3 days post treatment) is recorded as 100%. Moreover, the “effective against developing chalimus stage” value in test [4] (by 10 days post treatment) is reported as 96%.

Turning to `COC(=O)CNC(=O)c1ccc(C2=NOC(c3cc(Cl)cc(Cl)c3)(C(F)(F)F)C2)c2ccccc12` (centres unmarked) [Example 10], the EC80 in test [1] turned out to be 0.05 µg/mL (≈ 0.0952 µM).

In the case of `O=C(CNC(=O)c1ccc(C2=NOC(c3cc(Cl)cc(Cl)c3)(C(F)(F)F)C2)c2ccccc12)NCC(F)(F)F` (centres unmarked) [Example 11], the EC80 in test [1] is 0.05 µg/mL (≈ 0.0844 µM).

For the compound `CN(C)/C=N/C(=O)c1ccc(C2=NOC(c3cc(Cl)cc(Cl)c3)(C(F)(F)F)C2)c2ccccc12` (centres unmarked) [Example 12], the EC80 in test [1] amounted to 0.05 µg/mL (≈ 0.0984 µM).

In the case of `CON/C=N\C(=O)c1ccc(C2=NOC(c3cc(Cl)cc(Cl)c3)(C(F)(F)F)C2)c2ccccc12` (centres unmarked) [Example 13], the EC80 in test [1] turned out to be 0.05 µg/mL (≈ 0.098 µM).

Turning to `Cc1cc(C2=NOC(c3cc(Cl)cc(Cl)c3)(C(F)(F)F)C2)ccc1C(=O)NCC(=O)NCC(F)(F)F` (centres unmarked) [Example 14], in test [1], the EC80 was 0.05 µg/mL (≈ 0.0899 µM).

`CON/C=N/C(=O)c1ccc(C2=NOC(c3cc(Cl)cc(Cl)c3)(C(F)(F)F)C2)cc1C` (centres unmarked) [Example 16]: in test [1], the EC80 is 0.05 µg/mL (≈ 0.105 µM).

In the case of `CCC(=O)NCc1ccc(C2=NOC(c3cc(Cl)cc(Cl)c3)(C(F)(F)F)C2)cc1C` (centres unmarked) [Example 17], the EC80 in test [1] was 0.05 µg/mL (≈ 0.109 µM).

For the compound `COCCC(=O)NCc1ccc(C2=NOC(c3cc(Cl)cc(Cl)c3)(C(F)(F)F)C2)cc1C` (centres unmarked) [Example 18], in test [1], the EC80 turned out to be 0.05 µg/mL (≈ 0.102 µM).

`Cc1cc(C2=NOC(c3cc(Cl)cc(Cl)c3)(C(F)(F)F)C2)ccc1CNC(=O)C1CC1` (centres unmarked) [Example 24]: the EC80 in test [1] stood at 0.05 µg/mL (≈ 0.106 µM).

As for `CCCC(=O)NCc1ccc(C2=NOC(c3cc(Cl)cc(Cl)c3)(C(F)(F)F)C2)cc1C` (centres unmarked) [Example 25], in test [1], the EC80 is 0.05 µg/mL (≈ 0.106 µM).

For the compound `Cc1cc(C2=NOC(c3cc(Cl)cc(Cl)c3)(C(F)(F)F)C2)ccc1CNC(=O)CC1(C)OCCO1` (centres unmarked) [Example 26], in test [1], the EC80 is 0.05 µg/mL (≈ 0.0941 µM).

As for `CSCC(=O)NCc1ccc(C2=NOC(c3cc(Cl)cc(Cl)c3)(C(F)(F)F)C2)cc1C` (centres unmarked) [Example 28], the 80% effect concentration (EC80) in test [1] was determined as 0.05 µg/mL (≈ 0.102 µM).

As to `CC(=O)NCc1ccc(C2=NOC(c3cc(Cl)cc(Cl)c3)(C(F)(F)F)C2)cc1C` (centres unmarked) [Example 29], the EC80 in test [1] came out at 0.05 µg/mL (≈ 0.112 µM).

Consider `Cc1cc(C2=NOC(c3cc(Cl)cc(Cl)c3)(C(F)(F)F)C2)ccc1CNC(=O)C1CCC1` (centres unmarked) [Example 30], for which the EC80 in test [1] worked out at 0.05 µg/mL (≈ 0.103 µM).

For the compound `Cc1cc(C2=NOC(c3cc(Cl)cc(Cl)c3)(C(F)(F)F)C2)ccc1CNC(=O)CC(C)C` (centres unmarked) [Example 31], the EC80 in test [1] amounted to 0.05 µg/mL (≈ 0.103 µM).

Consider `Cc1cc(C2=NOC(c3cc(Cl)cc(Cl)c3)(C(F)(F)F)C2)ccc1CNC(=O)CCC#N` (centres unmarked) [Example 33], for which the EC80 in test [1] stood at 0.05 µg/mL (≈ 0.103 µM).

For orientation: EC80 means the concentration needed for an effect of 80%.
